Measurements published in ChEMBL document CHEMBL1629515, “Synthesis and biological evaluation of oleanolic acid derivatives as inhibitors of protein tyrosine phosphatase 1B” (J Nat Prod, 2010).

Molecular target: T1, Tyrosine-protein phosphatase non-receptor type 1 (Homo sapiens, UniProt P18031)
T1 sequence (P18031 whole entry): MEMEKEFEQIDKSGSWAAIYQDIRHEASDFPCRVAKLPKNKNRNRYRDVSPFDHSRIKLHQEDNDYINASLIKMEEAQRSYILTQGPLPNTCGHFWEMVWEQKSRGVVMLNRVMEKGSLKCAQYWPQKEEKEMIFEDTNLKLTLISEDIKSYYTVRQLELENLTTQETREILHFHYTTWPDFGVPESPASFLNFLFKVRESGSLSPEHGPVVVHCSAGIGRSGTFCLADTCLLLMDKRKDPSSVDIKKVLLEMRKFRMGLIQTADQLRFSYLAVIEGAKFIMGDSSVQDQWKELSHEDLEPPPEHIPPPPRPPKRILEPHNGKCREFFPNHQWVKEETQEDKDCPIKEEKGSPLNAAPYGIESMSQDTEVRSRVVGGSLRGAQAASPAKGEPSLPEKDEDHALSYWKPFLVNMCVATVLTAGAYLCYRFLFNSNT
Assay: Inhibition of recombinant PTP1B expressed in Escherichia coli BL21 after 30 mins by spectrophotometry

Structure (SMILES)	IC50 [µM]
CC1(C)CC[C@]2(COC(=O)CC(=O)O)CC[C@]3(C)C(=CC[C@@H]4[C@@]5(C)CCC(=O)C(C)(C)[C@@H]5CC[C@]43C)[C@@H]2C1	4.11
CC1(C)CC[C@]2(COC(=O)CCC(=O)O)CC[C@]3(C)C(=CC[C@@H]4[C@@]5(C)CCC(=O)C(C)(C)[C@@H]5CC[C@]43C)[C@@H]2C1	4.61
CC1(C)CC[C@]2(COC(=O)CCCC(=O)O)CC[C@]3(C)C(=CC[C@@H]4[C@@]5(C)CCC(=O)C(C)(C)[C@@H]5CC[C@]43C)[C@@H]2C1	6.39
CC1(C)CC[C@]2(COC(=O)c3ccccc3C(=O)O)CC[C@]3(C)C(=CC[C@@H]4[C@@]5(C)CCC(=O)C(C)(C)[C@@H]5CC[C@]43C)[C@@H]2C1	3.12
